Assay results taken from publication doi:10.1101/2025.03.14.643404, “A Bivalent Molecular Glue Linking Lysine Acetyltransferases to Oncogene-induced Cell Death” (bioRxiv, 2025).
Entries after “also recorded” stand apart in the source; their conditions may differ.

Assays:
[1] = test system: primary human fibroblasts; assay: Viability of primary human fibroblasts, 72 h; assay type: cell-based; details: compared with SUDHL5
Method: Lymphoma and leukemia cells were grown in RPMI-1640 medium (ATCC 30–2001) supplemented with 10% fetal bovine serum (FBS) and 1% 100X Penicillin-Streptomycin (Gibco, 15140122) in incubators at 37°C with 5% carbon dioxide. KARPAS422 cells were obtained from Sigma (06101702) and DB and SUDHL5 were obtained from the American Tissue Culture Collection (ATCC). The Daudi cell line, originally from ATCC, was generously provided by R. Levy’s laboratory at Stanford University. Raji cells, also from ATCC, were a gift from J. Cochran’s laboratory at Stanford University. TOLEDO and K562 cells were originally obtained from ATCC and were kindly shared by A. Alizadeh’s laboratory at Stanford University. […]
Thirty thousand cells were seeded in 100 μl of media per well of a 96-well plate and treated with drug for the indicated times and doses. A resazurin-based indicator of cell health (PrestoBlue; P50200, Thermo Fisher) was added for 1.5 h at 37°C, at which point the fluorescence ratio at 560/590 nm was recorded (Tecan Spark). The background fluorescence was subtracted, and the signal was normalized to DMSO-treated cells. IC50 measurements on cell lines were calculated using at least three biological replicates (separate cell passages). […]

p300 = molecular target: T1, p300 (Homo sapiens, UniProt P41182+Q09472); assay: p300 immunoprecipitation-mass spectrometry in SUDHL5; assay type: cell-based; details: SUDHL5, 1 nM, 2 h, vs DMSO
T1 construct: endogenous in cells; host or cells: SUDHL5
Method: 50 million FLAG-BCL6 knock-in SUDHL5 cells were treated compound or DMSO (0.1%) at indicated doses for 2 hours. Cells were lysed in NE10 buffer (20 mM HEPES (pH 7.5), 10 mM KCl, 1 mM MgCl2, 0.1% Triton X-100 (v/v), protease inhibitors (Roche), 15 mM ß-mercaptoethanol), dounced 15 times and pelleted 5 min at 500 g. Nuclei were washed in NE10 buffer and then digested with 250 units benzonase (Millipore) for 30 min rotating at 25°C. Nuclei were resuspended in NE150 buffer (NE10 supplemented with 150mM NaCl) and incubated for 20 min. Lysates were pelleted at 16,000 g for 20 min at 4°C and supernatants were immunoprecipitated by incubating with 2.5 μg FLAG M2 antibody (F1804, Millipore-Sigma) or 2.5 μg p300 (A300–358A, Bethyl Laboratories) antibody with Dynabeads Protein G (Thermo Fisher) overnight at 4°C. The IP fraction was recovered by magnetic separation followed by three washes with NE10 buffer containing 150mM–300mM NaCl but without Triton-X. For mass spectrometry analysis, the IP was then eluted from the beads with Ammonium Hydroxide, pH 11–12; 3% v/v. […]
The reconstituted desalted peptides were then analyzed using a nanoElute 2 UHPLC (Bruker Daltonics, Bremen, Germany) coupled to a timsTOF HT (Bruker Daltonics, Bremen, Germany) via a CaptiveSpray nano-electrospray source. […]

T1 sequence (Q09472 2-2414 limits assumed, other chains not shown): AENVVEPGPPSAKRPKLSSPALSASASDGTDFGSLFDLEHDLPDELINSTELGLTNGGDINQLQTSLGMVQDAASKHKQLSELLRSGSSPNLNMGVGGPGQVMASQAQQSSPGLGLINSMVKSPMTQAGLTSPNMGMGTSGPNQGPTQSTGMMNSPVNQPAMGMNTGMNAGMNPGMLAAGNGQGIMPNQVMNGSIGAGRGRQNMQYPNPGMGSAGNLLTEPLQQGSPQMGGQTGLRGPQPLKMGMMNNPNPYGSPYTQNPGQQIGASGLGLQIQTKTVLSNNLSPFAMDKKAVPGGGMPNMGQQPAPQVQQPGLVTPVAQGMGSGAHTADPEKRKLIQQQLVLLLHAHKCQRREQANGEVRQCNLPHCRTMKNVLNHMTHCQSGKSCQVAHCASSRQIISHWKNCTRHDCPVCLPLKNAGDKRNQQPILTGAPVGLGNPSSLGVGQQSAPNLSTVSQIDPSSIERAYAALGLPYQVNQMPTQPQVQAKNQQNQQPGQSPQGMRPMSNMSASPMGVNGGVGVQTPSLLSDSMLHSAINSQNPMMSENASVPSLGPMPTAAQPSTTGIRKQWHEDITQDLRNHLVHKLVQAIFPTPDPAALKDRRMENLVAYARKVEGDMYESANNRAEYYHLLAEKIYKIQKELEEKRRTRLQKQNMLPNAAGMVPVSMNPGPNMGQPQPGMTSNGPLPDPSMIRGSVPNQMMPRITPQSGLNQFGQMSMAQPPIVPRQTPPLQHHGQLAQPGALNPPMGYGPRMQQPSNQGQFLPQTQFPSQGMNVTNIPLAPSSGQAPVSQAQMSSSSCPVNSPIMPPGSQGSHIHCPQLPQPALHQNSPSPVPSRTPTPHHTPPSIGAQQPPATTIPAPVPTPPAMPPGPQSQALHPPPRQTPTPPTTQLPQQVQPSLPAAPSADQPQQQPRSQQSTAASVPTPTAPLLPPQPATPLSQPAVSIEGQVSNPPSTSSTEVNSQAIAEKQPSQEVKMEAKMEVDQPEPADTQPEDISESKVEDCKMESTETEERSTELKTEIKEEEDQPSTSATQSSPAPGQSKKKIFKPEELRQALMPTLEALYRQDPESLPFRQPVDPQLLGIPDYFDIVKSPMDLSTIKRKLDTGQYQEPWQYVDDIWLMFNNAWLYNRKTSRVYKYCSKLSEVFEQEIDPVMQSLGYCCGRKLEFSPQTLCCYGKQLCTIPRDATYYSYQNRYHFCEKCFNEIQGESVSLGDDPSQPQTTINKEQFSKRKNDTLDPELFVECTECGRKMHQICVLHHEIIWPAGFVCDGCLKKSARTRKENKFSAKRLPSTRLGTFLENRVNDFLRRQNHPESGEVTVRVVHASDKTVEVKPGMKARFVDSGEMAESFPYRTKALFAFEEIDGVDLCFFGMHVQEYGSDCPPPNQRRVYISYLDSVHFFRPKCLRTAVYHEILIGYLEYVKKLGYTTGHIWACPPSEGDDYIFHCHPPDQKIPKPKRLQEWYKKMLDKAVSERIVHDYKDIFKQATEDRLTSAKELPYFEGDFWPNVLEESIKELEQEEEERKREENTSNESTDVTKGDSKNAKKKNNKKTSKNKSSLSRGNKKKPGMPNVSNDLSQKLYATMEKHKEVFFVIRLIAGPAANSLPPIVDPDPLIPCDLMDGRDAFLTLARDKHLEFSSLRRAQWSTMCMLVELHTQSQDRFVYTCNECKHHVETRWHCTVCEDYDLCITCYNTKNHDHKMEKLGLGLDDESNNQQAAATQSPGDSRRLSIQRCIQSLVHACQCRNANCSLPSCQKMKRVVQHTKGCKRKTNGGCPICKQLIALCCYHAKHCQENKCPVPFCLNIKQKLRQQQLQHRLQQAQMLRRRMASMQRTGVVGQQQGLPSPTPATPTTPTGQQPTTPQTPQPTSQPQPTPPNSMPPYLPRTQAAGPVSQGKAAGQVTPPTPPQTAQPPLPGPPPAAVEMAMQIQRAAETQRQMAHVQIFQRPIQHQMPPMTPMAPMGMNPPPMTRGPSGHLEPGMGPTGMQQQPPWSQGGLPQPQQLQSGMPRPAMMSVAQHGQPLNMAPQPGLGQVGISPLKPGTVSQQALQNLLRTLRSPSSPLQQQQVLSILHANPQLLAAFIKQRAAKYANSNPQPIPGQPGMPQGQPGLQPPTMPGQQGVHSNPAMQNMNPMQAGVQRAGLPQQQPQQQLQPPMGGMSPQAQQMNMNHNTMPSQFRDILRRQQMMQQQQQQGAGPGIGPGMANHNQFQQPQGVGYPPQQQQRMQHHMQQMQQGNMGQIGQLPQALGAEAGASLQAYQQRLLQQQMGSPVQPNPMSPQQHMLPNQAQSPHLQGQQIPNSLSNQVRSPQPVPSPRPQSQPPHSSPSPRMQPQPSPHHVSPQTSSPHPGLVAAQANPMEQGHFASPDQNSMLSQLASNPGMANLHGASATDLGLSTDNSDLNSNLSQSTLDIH

enrichment of BCL6 in p300 IP, log2(fold change) (p300): 4.0
SMILES: CNC(=O)COc1cc2cc(Nc3nc(N4CCC(C(=O)N5CCN(CCC(=O)N6CCC(n7nc(N8CCCc9cc(-c%10cnn(C)c%10)c(C(F)F)cc98)c8c7CCN(C(=O)NC)C8)CC6)CC5)CC4)ncc3Cl)cc(OC)c2n(C)c1=O [TCIP3]
cytotoxicity [1]: substantially reduced cytotoxicity; also recorded: without exhibiting toxicity
